Data on one substance can be found in patent US20200215099A1, “NON-ANTICOAGULANT SULFATED OR SULFONATED POLYSACCHARIDES” (Baxalta Incorporated, priority 2012, published 2020).

The EC50 is the concentration giving half of the maximal effect.

The test system of data set [1] is FVIII-inhibited plasma. In words: Thrombin generation assay (CAT) in FVIII-inhibited plasma. The data set is classed as biochemical, human. Conditions: for EC50: half maximal thrombin peak, 1 pM hTF, 4 μM PL. Here is the method: The procoagulant activity of the sulfated polysaccharides was assessed by the Thrombin Generation Assay (TGA). The influence of each sulfated polysaccharide on thrombin generation was measured in duplicate via CAT in a Fluoroskan Ascent® reader (Thermo Labsystems, Helsinki, Finland; filters 390 nm excitation and 460 nm emission) following the slow cleavage of the fluorogenic substrate Z-Gly-GIy-Arg-AMC (Hemker H C. Pathophysiol Haemost Thromb (2003) 33(4):15). To each well of a 96 well microplate (Immulon 2HB, clear U-bottom; Thermo Electron) 80 μL of pre-warmed (37° C.) goat anti FVIII antibody treated human normal plasma pool was added. For triggering thrombin generation by tissue factor, 104 of PPP reagent containing a certain amount of recombinant human tissue factor (rTF) and phospholipid vesicles composed of phosphatidylserine, phosphatidylcholine and phosphatidylethanolamine (final concentration of 4 μM) (Thrombinoscope BV, Maastricht, The Netherlands) was added. For studying the procoagulant activity of sulfated polymers a final TF concentration of 1 pM was used to provide FVIII and TFPI sensitivity of the test system. Just prior to putting the plate into the pre-warmed (37° C.) reader, 10 µL of test or reference sample or calibrator compound was added. Thrombin generation was started by dispensing 204 of FluCa reagent (Thrombinoscope BV, Maastricht, The Netherlands) containing fluorogenic substrate and Hepes buffered CaCl2 (100 mM) into each well and fluorescence intensity was recorded at 37° C.
The parameters of the resulting thrombin generation curves were calculated using the Thrombinoscope™ software (Thrombinoscope BV, Maastricht, The Netherlands) and thrombin calibrator to correct for inner filter and substrate consumption effects (Hemker H C, Pathophysiol Haemost Thromb (2003) 33(4):15). With the thrombin calibrator as a reference, the molar concentration of thrombin in the test wells was calculated by the software. The thrombin amounts at the peak and peak times of each thrombin generation curve (peak thrombin, nM) were plotted against sulfated polysaccharide concentrations resulting in the procoagulant profile of these compounds. The thrombin generation assay results are illustrated in the figures appended hereto. From these plots half maximal effective concentrations (EC50) values are determined using a sigmoidal curve fit. The EC50 represents the concentration at which the half maximal thrombin peak is reached.

For data set [2], the system named is normal human plasma. In words: Activated partial thromboplastin time assay (aPTT). Format: biochemical. How it is done: The aPTT assay was performed to study anticoagulant activities of NASP. In brief, 50 μL of thawed normal human plasma pool (George King Biomedical, Overland Park, Kans.) was mixed with 5 μL of NASP sample (0-60 μg/mL final plasma concentration). NASPs were diluted in imidazole buffer (3.4 g/L imidazole; 5.85 g/L NaCl, pH 7.4) containing 1% albumin (Baxter, Austria). After addition of 50 μL aPTT reagent (STA APTT, Roche) the samples were incubated for 4 min at 37° C. Clotting was initiated by 50 μL of 25 mM CaCl2 solution (Baxter, Austria) and recorded for up to 5 min. All pipetting steps and clotting time measurements were carried out with an ACL Pro Elite (Instrumentation Laboratory, Bedford, Mass.) instrument. Samples were run in duplicate.
For data analysis, clotting time is plotted against the NASP concentration. Concentrations where the clotting time is 50% increased over the normal plasma control are determined using a linear curve fit.

Data set [3] deals with T1, full-length TFPI (Homo sapiens, UniProt P10646).
T1 construct: 0.5 μg/mL full-length TFPI (aa 1-276, constitutively produced by SKHep1); made in house; host or cells: SKHep1
T1 sequence (P10646 29-304): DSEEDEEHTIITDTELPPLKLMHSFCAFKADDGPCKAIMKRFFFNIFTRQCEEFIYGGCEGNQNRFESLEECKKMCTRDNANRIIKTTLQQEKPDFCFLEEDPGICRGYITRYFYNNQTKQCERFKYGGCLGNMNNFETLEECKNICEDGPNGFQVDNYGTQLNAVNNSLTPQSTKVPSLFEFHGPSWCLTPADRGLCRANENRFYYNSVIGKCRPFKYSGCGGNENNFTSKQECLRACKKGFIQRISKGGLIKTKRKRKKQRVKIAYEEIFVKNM
In words: Dilute prothrombin time assay with added TFPI (TFPI-dPT). Format: biochemical. Here is the method: A dilute prothrombin time assay with added TFPI (TFPI-dPT) was used to evaluate the TFPI-inhibiting effect of the different NASPs. Pooled normal human plasma (George King Biomedical, Overland Park, Kans.) was pre-incubated with 0.5 μg/mL full-length TFPI (aa 1-276, constitutively produced by SKHep1) and the respective NASP (0-5 μg/mL) for 15 min at RT. TF reagent TriniClot PT Excel S (Trinity Biotech, Wicklow, Ireland), diluted in Hepes-buffered saline 1:200 with 0.5% BSA was added to the plasma samples on an ACL Pro Elite hemostasis analyzer (Instrumentation Laboratory, Bedford, Mass.). Clotting was initiated with 25 mM CaCl2). The volume ratio of plasma:TF:CaCl2 was 1:1:1.
For data analysis, TFPI-dPT is plotted against the log concentration. Half maximal effective concentrations (EC50) values are determined using a sigmoidal curve fit.

Data set [4] relates to FVIII-inhibited human whole blood. In words: Rotation thromboelastometry (ROTEM). Conditions: ROTEM, 0.044 pM TF. How it is done: NASPs (0.4-11 μg/mL) were studied in fresh citrated human whole blood by rotation thromboelastometry (ROTEM), an assay that allows continuous visco-elastic assessment of whole blood clot formation and firmness. Blood was incubated with anti-human FVIII plasma raised in goat (Baxter Bioscience, Austria) at 50 BU/mL to simulate hemophilic conditions. Clotting was triggered with 0.044 pM tissue factor (TF) (PRP reagent, Thrombinoscope BV) in the presence of 40 μg/mL CTI (Haematologic Technologies Inc., Essex Junction, Vt., USA). Then 300 μL of the pre-warmed (37° C.) FVIII-inhibited blood was recalcified with 20 μL of a 0.2 M CaCl2 solution. Clot formation was monitored using a ROTEM instrument (Pentapharm Munich, Germany) at 37° C. The final assay concentration of rTF was 44 fM. The ROTEM recording was started immediately and measured for at least 120 min. Each blood sample was analyzed in two independent measurements.
The thromboelastographic parameters of clotting time (CT), clot formation time (CFT) and maximum clot firmness (MCF) were recorded in accordance with the manufacturer's instructions. The first derivative of the thromboelastogram data is plotted to obtain a graph of velocity (mm/s) against time (s). From this graph, the maximum velocity (maxV) and the time at which the maximum velocity is reached (maxV-t) are also determined.

In data set [5] the test system is contact pathway. In words: CAT in normal plasma with and without CTI. The data set is classed as biochemical.
Where [6] appears, read: listed as sulfated β-cyclodextrin.

For the substance “sulfated β-cyclodextrin [β-Cyclodextrin (Sigma)]”, the EC50 in data set [1] is 1.8 µg/mL; in data set [1] (setting [6]) it was 0.7 µg/mL; in data set [1] (listed as β-cyclodextrin) it was “about 2 μg/mL”. Further, the entries for the “procoagulant activity (in words)” value in data set [1] (setting [6]) and in data set [1] (listed as β-cyclodextrin) were “good procoagulant activity” and “substantial procoagulant activity”, respectively. The “Ratio aPTT/CAT” value in data set [2] (50% increase clotting time / CAT EC50) stood at 5.1. Moreover, the “anticoagulant activity (in words)” value in data set [2] (aPTT compared with procoagulant CAT concentration) is reported as “become anticoagulant within their procoagulant window”. Further, in data set [2] (concentration where clotting time is 50% increased over normal plasma control), the “50% Increase Clotting Time” value is 3.6 µg/mL. Also, the “reversal of the effect of rec. FL-TFPI (in words)” value in data set [3] (normal human plasma) is “reverses the effect of rec. FL-TFPI in plasma”. Besides, the “EC50 TFPI-dPT” value in data set [3] (normal human plasma with rec. FL-TFPI) is 0.08 µg/mL. Moreover, the “restoration of coagulation (in words)” value in data set [4] is “restore coagulation parameters of FVIII-inhibited whole blood”; in data set [4] (listed as sulfated β-cyclodextrin (18.9% S)) it was “restores coagulation to normal in FVIII-inhibited blood”. Moreover, the “activation of the contact pathway (in words)” value in data set [5] was “No activation of the contact pathway”. Also, the “concentration activating the contact pathway” value in data set [5] (normal plasma, 1 pM hTF, 4 μM PL, ±41 μg/mL CTI) was > 33000 ng/mL.
